Values quoted from earlier work in patent publication US10028900B2, “Photostable sunscreen composition for topical application” (KANCOR INGREDIENTS LTD, priority 2014, dated 2018).

Details: oil / water

Row | Solubility (in words) | SMILES
1 | oil soluble and water insoluble | COc1ccc(C(=O)CC(=O)c2ccc(C(C)(C)C)cc2)cc1 [Avobenzone, 1-(4-methoxyphenyl)-3-(4-tert-butylphenyl)propane-1,3-dione]
2 | oil soluble and water insoluble | CCCCC(CC)COC(=O)/C=C/c1ccc(OC)cc1 (centres unmarked) [Octyl-methoxy cinnamate, 2-ethylhexyl (2E)-3-(4-methoxyphenyl) prop-2-enoate]
